Test results published in US10179914B2, “CDC25A inhibitor for the treatment of drug resistant cancer or for the prevention of tumor relapse” (INSERM (INSTITUT NATIONAL DE LA SANTÉ ET DE LA RECHERCHE …, priority 2014, dated 2019).

Tests used:
human LNCaP xenografts = settings: intravenous and oral routes; cited from earlier work
[1] = with these regimens; cited from earlier work
[2] = Preliminary toxicity assays in NSG mice; type: in vivo
Excerpt: In vivo experiments. Animals were used in accordance to a protocol reviewed and approved by the Institutional Animal Care and User Ethical Committee of the UMS006 and Region Midi-Pyrénées (Approval#13-U1037-JES08). NOD/LtSz-scid IL-2Rγchainnull (NSG) mice (Sanchez P V et al) were produced at the Genotoul Anexplo platform in Toulouse (France) using breeders obtained from The Charles River Laboratory. Mice were housed in sterile conditions using HEPA filtered micro-isolators and fed with irradiated food and acidified water. Transplanted mice were treated with antibiotics (enrofloxacin) for the duration of the experiment. […] Adult mice (6 or 7-week old) were treated with 20 mg/kg Busulfan (Busilvex, Pierre Fabre, France) by i.p. administration 24 hours before injection of leukemic cells. Cultured MOLM-14 cells were washed in PBS and cleared of aggregates and debris using a 0.2 mm cell filter, and suspended in PBS at a final concentration of 2 million cells per 200 μL of PBS per mouse for i.v. injection. IRC-083864 (5 mg/kg/week) was then administrated to leukemic mice by i.p. injection. Daily monitoring of mice for symptoms of disease (ruffled coat, hunched back, weakness and reduced motility) determined the time of animal euthanasia. Cell differentiation was monitored after two IRC-083864 injections: mice were humanely killed in accordance with IACUC protocols. […]

Cdc25B = molecular target: T1, Cdc25B (Homo sapiens, UniProt P30305); settings: cited from earlier work
T1 sequence (P30305 1-580): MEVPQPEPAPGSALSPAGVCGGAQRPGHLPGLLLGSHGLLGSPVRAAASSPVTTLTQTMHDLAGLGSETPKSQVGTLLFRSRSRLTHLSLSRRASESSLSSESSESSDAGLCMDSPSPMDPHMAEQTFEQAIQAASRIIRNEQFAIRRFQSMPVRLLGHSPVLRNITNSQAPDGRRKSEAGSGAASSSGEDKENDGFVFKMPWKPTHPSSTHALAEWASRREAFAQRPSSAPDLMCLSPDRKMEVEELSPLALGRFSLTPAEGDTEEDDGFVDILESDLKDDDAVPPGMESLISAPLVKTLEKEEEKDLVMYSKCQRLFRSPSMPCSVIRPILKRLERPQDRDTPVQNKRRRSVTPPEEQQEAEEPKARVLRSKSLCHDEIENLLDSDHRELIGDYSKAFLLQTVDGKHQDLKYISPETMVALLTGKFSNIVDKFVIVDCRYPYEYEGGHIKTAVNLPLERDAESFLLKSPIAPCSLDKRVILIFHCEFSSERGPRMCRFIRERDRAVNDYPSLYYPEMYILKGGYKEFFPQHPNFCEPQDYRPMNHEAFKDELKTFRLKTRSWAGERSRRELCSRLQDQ

[3] = test system: human cell lines (tumor cell proliferation); settings: compared with BN82685; cited from earlier work
Mia-Paca-2 tumors = settings: intravenous and oral routes; cited from earlier work
Cdc25A = Cdc25A (Homo sapiens, UniProt P30304); settings: cited from earlier work
Cdc25A, sequence (P30304 whole entry): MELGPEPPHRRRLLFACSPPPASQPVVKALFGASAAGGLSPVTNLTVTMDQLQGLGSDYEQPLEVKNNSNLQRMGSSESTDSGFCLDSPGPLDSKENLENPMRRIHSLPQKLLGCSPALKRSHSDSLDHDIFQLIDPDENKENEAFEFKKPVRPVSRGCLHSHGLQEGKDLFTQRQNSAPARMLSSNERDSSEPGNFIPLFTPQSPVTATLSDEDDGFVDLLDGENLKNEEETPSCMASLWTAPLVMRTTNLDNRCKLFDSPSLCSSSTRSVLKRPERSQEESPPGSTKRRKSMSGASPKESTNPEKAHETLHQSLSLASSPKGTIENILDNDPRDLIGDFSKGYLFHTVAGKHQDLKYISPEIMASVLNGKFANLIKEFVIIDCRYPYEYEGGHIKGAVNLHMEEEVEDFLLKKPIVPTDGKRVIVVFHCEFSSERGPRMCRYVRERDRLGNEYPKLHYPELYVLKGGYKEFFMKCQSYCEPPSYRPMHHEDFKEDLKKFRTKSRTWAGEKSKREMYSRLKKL

Cc1nc2c(s1)C(=O)C=C(NCCCN(C)CCCNC1=CC(=O)c3nc(-c4cc(F)ccc4F)oc3C1=O)C2=O [IRC-083864]
growth of human LNCaP xenografts (human LNCaP xenografts): reduces the growth
apparent toxicity [1]: No sign of apparent toxicity
toxicity in male versus female NSG mice [2]: higher toxicity
IC50 Cdc25 enzyme type B2 (Cdc25B; B2): nanomolar range
IC50 Cdc25 enzyme type B3 (Cdc25B; B3): nanomolar range
potency of tumor cell proliferation inhibition [3]: equivalent to that of BN82685
growth of human Mia Paca-2 xenografts (Mia-Paca-2 tumors): reduces the growth
IC50 Cdc25 enzyme type A (Cdc25A): nanomolar range
